# Assay results: patent US9206124B2, “Treatment of drug-resistant cancer with 2-aryl-2-(3-indolyl) acetohydroxamates” (New Mexico Technical Research Foundation, priority 2013, dated 2015)
# Read-outs that look alike come from different tables or passages of the source.
# Key:
# [1] = system: HeLa cervical adenocarcinoma cells; test: MTT antiproliferative assay, HeLa; type: cell-based; settings: Homo sapiens, ± SD, read-out: cell viability GI50, HeLa
# Text: (§1) This finding led to an exploration of the SAR analyses by synthesizing the first generation compounds 3 containing diverse substituents at different positions in the 2-aryl-2-(3-indolyl)acetohydroxamate skeleton and testing this series for in vitro growth inhibition using the MTT colorimetric assay against two cell lines, human HeLa cervical and MCF-7 breast adenocarcinomas (Table 1). It emerged from these experiments that the substitution on the benzene ring of the indole moiety (R^2≠H) was not tolerated (e.g., 3abfa and 3acfa), whereas the nitrogen could be derivatized (R^1≠H) with only a small activity drop (e.g., 3bafa vs 3aafa).
# (§2) Human cancer cell lines were obtained from the American Type Culture Collection (ATCC, Manassas, Va., USA), the European Collection of Cell Culture (ECACC, Salisbury, UK) and the Deutsche Sammlung von Mikroorganismen and Zellkulturen (DSMZ, Braunschweig, Germany). Human cervical adenocarcinoma HeLa cells were cultured in DMEM supplemented with 10% fetal bovine serum (FBS). Human mammary carcinoma MCF-7 cells were cultured in RPMI supplemented with 10% FBS. The U87 cells (ATCC HTB-14) were cultured in DMEM culture medium, while the A549 cells (DSMZ ACC107) were cultured in RPMI culture medium supplemented with 10% heat-inactivated FBS. The glioblastoma multiforme Hs683 (ATCC HTB-138) and the T98G (ATCC CRL-1690) cell lines were cultivated in DMEM supplemented with 10% FBS. The Human uterine sarcoma MES-SA and MES-SA/Dx5 cells were cultured in RPMI-1640 medium supplemented with 10% FBS with MES SA/Dx5 maintained in the presence of 500 nM Doxorubicin (Sigma). SKMEL-28 cells (ATCC HTB72) and U373 glioblastoma cells (ECACC 08061901) were cultured in RPMI culture medium supplemented with 10% heat-inactivated FBS. Cell culture media were supplemented with 4 mM glutamine (Lonza code BE17-605E), 100 μg/mL gentamicin (Lonza code 17-5182), and penicillin-streptomycin (200 units/ml and 200 μg/ml) (Lonza code 17-602E). Neurosphere culture GBM 031810 was established using known methods and maintained in Neurobasal medium (Invitrogen Carlsbad, Calif.) with B27 supplement (20 ul/ml; Invitrogen), Glutamax (10 ul/ml; Invitrogen), fibroblast growth factor-2 (20 ng/ml; Peprotech, Rocky Hill, N.J., USA), epidermal growth factor (20 ng/ml; Peprotech), heparin (32 IE/ml; Sigma Aldrich, St. Louis, Mo.), and penicillin-streptomycin (1×, Invitrogen). Growth factors and heparin were renewed twice weekly. All cell lines were cultured in T25 flasks, maintained and grown at 37° C., 95% humidity, 5% CO2.
# (§3) Antiproliferative properties of the synthesized compounds were evaluated by the MTT assay. All compounds were dissolved in DMSO at a concentration of either 100 mM or 50 mM prior to cell treatment. The cells were trypsinized and seeded at 4×10^3 cells per well into 96-well plates. The cells were grown for 24 h, treated with compounds at concentrations ranging from 0.001 to 100 μM and incubated for 48 h in 200 μL media. 20 μL of MTT reagent in serum free medium (5 mg/mL) was added to each well and incubated further for 2 h. Media was removed and the resulting formazan crystals were re-solubilized in 200 μL of DMSO. A490 was measured using a Molecular Devices Thermomax plate reader. The experiments were performed in quadruplicate and repeated at least twice for each compound per cell line. Cells treated with 0.1% DMSO were used as a negative control; 1 μM phenyl arsine oxide (PAO) was used as a positive control.
# [2] = system: MCF-7 breast adenocarcinoma cells; test: MTT antiproliferative assay, MCF-7; type: cell-based; settings: Homo sapiens, ± SD, read-out: cell viability GI50, MCF7
# Text: as §1, §2, §3
# [3] = system: HeLa cervical and MCF-7 breast adenocarcinomas; test: In vitro growth inhibition (MTT); type: cell-based, human; settings: HeLa and MCF-7
# Text: as §1, §3
# U87 glioblastoma cells = test: MTT antiproliferative assay, U87; type: cell-based, human; settings: FIG. 3; concentrations up to 100 μM
# Protocol: (§4) As part of the ongoing efforts aimed at identification of compounds active against cancer cells displaying resistance to proapoptotic agents, the selected 2-aryl-2-(3-indolyl)-acetohydroxamates were evaluated for in vitro growth inhibition against a panel of additional cancer cell lines including those resistant to various proapoptotic stimuli, such as human T98G and U87 glioblastoma and human A549 non-small-cell-lung cancer (NSCLC), as well as an apoptosis-sensitive tumor model, such as human Hs683 anaplastic oligodendroglioma, used as a reference. The data reveal that for the most part these compounds retain the single-digit antiproliferatve GI50 values in this challenging cancer cell panel.
# as §2, §3
# [4] = system: A549 non-small-cell-lung cancer cells; test: MTT antiproliferative assay, A549; type: cell-based, human; settings: FIG. 3; concentrations up to 100 μM
# Protocol: as §4, §2, §3
# [5] = system: MES-SA uterine sarcoma cells; test: MTT antiproliferative assay, MES-SA; type: cell-based; settings: Homo sapiens, 48 h treatment, ± SD, read-out: GI50 in vitro, MES-SA
# Protocol: Compared with the intrinsic drug resistance, as described above for such cancers as glioblastoma and melanoma, a large variety of tumors can also develop resistance to anticancer drugs resulting in MDR as explained previously. To assess whether the hydroxamates can overcome this resistance mechanism, selected hydroxamates were tested against MDR cells (Table 4). The MDR uterine sarcoma cell line MES-SA/Dx5 was utilized for this experiment. This cell line was established from the parent uterine sarcoma MES-SA, grown in the presence of increasing concentrations of doxorubicin and known to be resistant to a number of P-gp substrates. […] In contrast, there was only a small variation in the sensitivities of the two cell lines towards the hydroxamates indicating their potential to overcome clinical multi-drug resistance.
# as §2, §3
# [6] = system: MES-SA/Dx5 MDR uterine sarcoma cells; test: MTT antiproliferative assay, MDR MES-SA/Dx5; type: cell-based, human
# Protocol: Compared with the intrinsic drug resistance, as described above for such cancers as glioblastoma and melanoma, a large variety of tumors can also develop resistance to anticancer drugs resulting in MDR as explained previously. To assess whether the hydroxamates can overcome this resistance mechanism, selected hydroxamates were tested against MDR cells (Table 4). The MDR uterine sarcoma cell line MES-SA/Dx5 was utilized for this experiment. This cell line was established from the parent uterine sarcoma MES-SA, grown in the presence of increasing concentrations of doxorubicin and known to be resistant to a number of P-gp substrates.
# as §2, §3
# Selection of the MES-SA/Dx5 cell line was done according to W. G. Harker and B. I. Sikic, Cancer Res. 1985, p. 45, 4091. The cells were split and allowed to adhere overnight. […] The cells were maintained at this DOX concentration until their growth rate reached that of the untreated cells.
SMILES,"GI50 ([1]; Table 1, 48 h treatment)","GI50 ([2]; MCF7, Table 1, 48 h treatment)","GI50 ([1]; Table 2, 48 h treatment)","GI50 ([2]; MCF7, Table 2, 48 h treatment)",also measured
O=C(NO)C(c1ccccc1)c1c(-c2ccccc2)[nH]c2ccccc12 (centres unmarked) [Compound 3aaaa],23 ± 2.6 µM,31 ± 0.6 µM,–,–,antiproliferative potency (GI50) [3]: double-digit micromolar
O=C(NO)C(c1ccc([N+](=O)[O-])cc1)c1c(-c2ccccc2)[nH]c2ccccc12 (centres unmarked) [Compound 3aaab],> 50 µM,> 50 µM,–,–,–
O=C(NO)C(c1ccccc1)c1c(-c2ccccc2[N+](=O)[O-])[nH]c2ccccc12 (centres unmarked) [Compound 3aaba],> 50 µM,> 50 µM,–,–,–
COc1ccc(-c2[nH]c3ccccc3c2C(C(=O)NO)c2ccccc2)cc1 (centres unmarked) [Compound 3aaca],> 50 µM,> 50 µM,–,–,–
Cc1[nH]c2ccccc2c1C(C(=O)NO)c1ccccc1 (centres unmarked) [Compound 3aada],> 50 µM,> 50 µM,–,–,–
O=C(NO)C(c1ccccc1)c1c(-c2cccc3ccccc23)[nH]c2ccccc12 (centres unmarked) [Compound 3aaea],25.7 ± 1.6 µM,32 ± 0.9 µM,–,–,–
O=C(NO)C(c1cccc(F)c1)c1c(-c2ccc3ccccc3c2)[nH]c2ccccc12 (centres unmarked) [Compound 3aafc],–,–,32.9 ± 1.1 µM,20.4 ± 0.1 µM,–
O=C(NO)C(c1ccccc1Br)c1c(-c2ccc3ccccc3c2)[nH]c2ccccc12 (centres unmarked) [Compound 3aafd],–,–,13 ± 0.4 µM,2.7 µM,–
COc1ccc(C(C(=O)NO)c2c(-c3ccc4ccccc4c3)[nH]c3ccccc23)cc1OC (centres unmarked) [Compound 3aaff],–,–,26.9 ± 0.3 µM,2.4 ± 0.1 µM,–
O=C(NO)C(c1ccc(F)cc1)c1c(-c2ccc3ccccc3c2)[nH]c2ccccc12 (centres unmarked) [Compound 3aafg],–,–,18.2 ± 0.9 µM,6.3 ± 1.1 µM,–
O=C(NO)C(c1ccccc1Cl)c1c(-c2ccc3ccccc3c2)[nH]c2ccccc12 (centres unmarked) [Compound 3aafh],–,–,31 ± 0.2 µM,4.9 ± 0.1 µM,–
O=C(NO)C(c1ccc(Cl)c(Cl)c1)c1c(-c2ccc3ccccc3c2)[nH]c2ccccc12 (centres unmarked) [Compound 3aafi],–,–,31.7 ± 1.7 µM,12.2 ± 1 µM,–
O=C(NO)C(c1ccc(OC(F)(F)F)cc1)c1c(-c2ccc3ccccc3c2)[nH]c2ccccc12 (centres unmarked) [Compound 3aafj],–,–,27.4 ± 0.2 µM,10.2 ± 0.1 µM,–
CCOc1ccc(C(C(=O)NO)c2c(-c3ccc4ccccc4c3)[nH]c3ccccc23)cc1 (centres unmarked) [Compound 3aafl],–,–,17.3 ± 0.2 µM,8.5 ± 0.3 µM,–
Cc1ccc(C(C(=O)NO)c2c(-c3ccc4ccccc4c3)[nH]c3ccccc23)cc1 (centres unmarked) [Compound 3aafm],–,–,6.3 ± 1.3 µM,4.9 ± 0.2 µM,antiproliferative potency (GI50) [3]: single-digit micromolar
Cc1cccc(C(C(=O)NO)c2c(-c3ccc4ccccc4c3)[nH]c3ccccc23)c1 (centres unmarked) [Compound 3aafn],–,–,6.9 ± 0.4 µM,7.4 ± 0.6 µM,antiproliferative potency (GI50) [3]: single-digit micromolar
CCN(CC)c1ccc(C(C(=O)NO)c2c(-c3ccc4ccccc4c3)[nH]c3ccccc23)cc1 (centres unmarked) [Compound 3aafo],–,–,4.1 ± 0.2 µM,7.9 ± 0.7 µM,antiproliferative potency (GI50) [3]: single-digit micromolar
Cc1ccc2[nH]c(-c3ccc4ccccc4c3)c(C(C(=O)NO)c3ccccc3)c2c1 (centres unmarked) [Compound 3abfa],> 50 µM,> 50 µM,–,–,–
COc1ccc2[nH]c(-c3ccc4ccccc4c3)c(C(C(=O)NO)c3ccccc3)c2c1 (centres unmarked) [Compound 3acfa],> 50 µM,> 50 µM,–,–,–
Cn1c(-c2ccc3ccccc3c2)c(C(C(=O)NO)c2ccccc2)c2ccccc21 (centres unmarked) [Compound 3bafa],19.7 ± 1.7 µM,10 ± 0.3 µM,–,–,–
Cn1c(-c2ccc3ccccc3c2)c(C(C(=O)NO)c2cccc(F)c2)c2ccccc21 (centres unmarked) [Compound 3bafc],36.8 ± 0.4 µM,25.7 ± 1.4 µM,–,–,–
Cn1c(-c2ccc3ccccc3c2)c(C(C(=O)NO)c2ccccc2Br)c2ccccc21 (centres unmarked) [Compound 3bafd],24 ± 0.2 µM,11.2 ± 0.9 µM,–,–,–
CCCCn1c(-c2ccc3ccccc3c2)c(C(C(=O)NO)c2ccc(C(C)C)cc2)c2ccccc21 (centres unmarked) [Compound 3cafe],–,–,6.6 ± 0.5 µM,7.7 ± 0.4 µM,antiproliferative potency (GI50) [3]: single-digit micromolar
CCC(C)n1c(-c2ccc3ccccc3c2)c(C(C(=O)NO)c2ccccc2)c2ccccc21 (centres unmarked) [Compound 3dafa],–,–,9.8 ± 0.8 µM,9.3 ± 0.3 µM,antiproliferative potency (GI50) [3]: single-digit micromolar
"CC(=O)O[C@H]1C(=O)[C@@]2(C)[C@H]([C@H](OC(=O)c3ccccc3)[C@]3(O)C[C@H](OC(=O)[C@H](O)[C@@H](NC(=O)c4ccccc4)c4ccccc4)C(C)=C1C3(C)C)[C@]1(OC(C)=O)CO[C@@H]1C[C@@H]2O [Taxol, reference compound]",–,–,–,–,"cells whose proliferation is not affected, U87 (U87 glioblastoma cells): ca. 50%; cells whose proliferation is not affected, A549 [4]: ca. 50%; GI50 [5]: 0.007 ± 0.001 µM"
"CC[C@]1(O)C[C@@H]2CN(CCc3c([nH]c4ccccc34)[C@@](C(=O)OC)(c3cc4c(cc3OC)N(C)[C@H]3[C@@](O)(C(=O)OC)[C@H](OC(C)=O)[C@]5(CC)C=CCN6CC[C@]43[C@@H]65)C2)C1 [Vinblastine, reference compound]",–,–,–,–,"GI50 [5]: 0.006 ± 0.001 µM; GI50 ([6]; Homo sapiens, MES-SA/Dx5, 48 h treatment, MTT, ± SD, MDR line, read-out: GI50 in vitro, MES-SA/Dx5): 5 ± 1.4 µM; change in potency, MDR MES-SA/Dx5 versus parent MES-SA ([6]; MDR line compared with parent line): more than a thousand fold drop in potency"
"COc1cc([C@@H]2c3cc4c(cc3[C@H](O)[C@H]3COC(=O)[C@H]23)OCO4)cc(OC)c1OC [podophyllotoxin, reference compound]",–,–,–,–,"cells whose proliferation is not affected, U87 (U87 glioblastoma cells): ca. 50%; cells whose proliferation is not affected, A549 [4]: ca. 50%"
